Experiments:
RAW264.7 = experiment: Antioxidant activity in LPS induced mouse RAW264.7 cells assessed as superoxide anion scavenging activity at 10 uM after 24 hrs by HE probe based HPLC-MS analysis relative to control; assay type: functional
[1] = Antioxidant activity assessed as DPPH radical scavenging activity incubated for 30 mins under dark conditions by spectrophotometry; assay type: functional
[2] = target: Xanthine dehydrogenase/oxidase (Homo sapiens, UniProt P47989); experiment: Inhibition of Xanthine oxidase (unknown origin) using xanthine as substrate preincubated for 3 mins followed by substrate addition measured every 15 secs for 7 mins by spectrophotometry
Xanthine dehydrogenase/oxidase, sequence (P47989 whole entry): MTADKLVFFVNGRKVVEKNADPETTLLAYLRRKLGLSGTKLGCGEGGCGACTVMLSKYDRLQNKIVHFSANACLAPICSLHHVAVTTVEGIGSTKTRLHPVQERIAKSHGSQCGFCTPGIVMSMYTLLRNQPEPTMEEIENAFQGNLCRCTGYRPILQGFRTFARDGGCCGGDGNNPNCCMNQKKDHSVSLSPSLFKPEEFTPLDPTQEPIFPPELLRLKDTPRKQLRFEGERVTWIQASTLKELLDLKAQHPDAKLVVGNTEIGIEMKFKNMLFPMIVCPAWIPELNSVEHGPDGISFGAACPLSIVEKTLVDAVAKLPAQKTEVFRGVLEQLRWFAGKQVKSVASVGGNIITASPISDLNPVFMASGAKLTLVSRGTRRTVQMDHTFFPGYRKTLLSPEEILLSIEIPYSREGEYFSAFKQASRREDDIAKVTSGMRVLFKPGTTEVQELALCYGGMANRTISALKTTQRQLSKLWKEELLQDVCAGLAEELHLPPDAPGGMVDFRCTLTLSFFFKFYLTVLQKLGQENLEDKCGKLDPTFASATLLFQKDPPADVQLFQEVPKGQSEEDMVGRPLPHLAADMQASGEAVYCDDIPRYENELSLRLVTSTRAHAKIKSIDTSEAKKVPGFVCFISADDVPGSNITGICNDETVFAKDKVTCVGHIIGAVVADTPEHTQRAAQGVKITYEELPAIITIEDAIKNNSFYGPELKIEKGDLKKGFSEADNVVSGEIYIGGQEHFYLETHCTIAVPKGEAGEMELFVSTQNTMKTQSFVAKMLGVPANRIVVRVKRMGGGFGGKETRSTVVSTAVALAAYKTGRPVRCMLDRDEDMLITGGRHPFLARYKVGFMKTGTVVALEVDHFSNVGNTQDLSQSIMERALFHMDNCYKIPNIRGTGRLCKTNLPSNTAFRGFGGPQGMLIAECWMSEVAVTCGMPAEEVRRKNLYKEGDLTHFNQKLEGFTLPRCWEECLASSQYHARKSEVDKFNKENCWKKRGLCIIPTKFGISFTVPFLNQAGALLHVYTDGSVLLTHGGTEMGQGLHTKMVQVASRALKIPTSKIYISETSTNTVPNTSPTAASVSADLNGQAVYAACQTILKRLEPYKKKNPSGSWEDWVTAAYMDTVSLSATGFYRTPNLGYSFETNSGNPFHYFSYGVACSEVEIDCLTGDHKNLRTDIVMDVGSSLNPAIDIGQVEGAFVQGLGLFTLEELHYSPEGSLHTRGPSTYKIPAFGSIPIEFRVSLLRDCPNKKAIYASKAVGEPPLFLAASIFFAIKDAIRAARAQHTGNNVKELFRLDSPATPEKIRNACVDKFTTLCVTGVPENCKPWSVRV

Compound | Activity (RAW264.7) [%] | IC50 [1] [µM] | IC50 [2] [µM]
COC(=O)[C@H](C)NC(=O)/C=C/c1ccc(O)c2oc(-c3ccc(O)c(O)c3)cc12 | 60.54 | – | –
VITAMIN E | 53.2 | – | –
C[C@H](NC(=O)/C=C/c1ccc(O)c2oc(-c3ccc(O)c(O)c3)cc12)C(=O)O | 41.65 | – | –
O=C(/C=C/c1ccc(O)c2oc(-c3ccc(O)c(O)c3)cc12)N[C@H](Cc1ccc(O)c(O)c1)C(=O)O | 80.81 | – | –
O=C(/C=C/c1ccc(O)c2oc(-c3ccc(O)c(O)c3)cc12)O[C@H](Cc1ccc(O)c(O)c1)C(=O)O | 37.82 | 6.87 | 8.26
O=C(/C=C/c1ccc(O)c2oc(-c3ccc(O)c(O)c3)cc12)N[C@@H](Cc1ccccc1)C(=O)O | 81.27 | – | –
COC(=O)[C@@H](Cc1ccc(O)c(O)c1)NC(=O)/C=C/c1ccc(O)c2oc(-c3ccc(O)c(O)c3)cc12 | 74.16 | – | –
COC(=O)[C@H](Cc1ccc(O)c(O)c1)NC(=O)/C=C/c1ccc(O)c2oc(-c3ccc(O)c(O)c3)cc12 | 78.59 | – | –
COC(=O)[C@H](C)NC(=O)/C=C/c1ccc(OC)c2oc(-c3ccc(OC)c(OC)c3)cc12 | – | > 100 | > 60
COC(=O)[C@H](Cc1ccccc1)NC(=O)/C=C/c1ccc(OC)c2oc(-c3ccc(OC)c(OC)c3)cc12 | – | > 100 | > 60
COC(=O)[C@@H](Cc1c[nH]c2ccccc12)NC(=O)/C=C/c1ccc(OC)c2oc(-c3ccc(OC)c(OC)c3)cc12 | – | > 100 | > 60
O=C(/C=C/c1ccc(O)c2oc(-c3ccc(O)c(O)c3)cc12)N[C@@H](Cc1ccc(O)cc1)C(=O)O | 83.41 | – | –

Reference: ChEMBL document CHEMBL4000156 (Eur J Med Chem, 2016)
